This note sets out measurements from PMC3914206.

Molecules are shown by their SMILES.

Common to all, as to assay type: binding
Test [1] addresses T1, panel of 442 kinases (Homo sapiens, UniProt P46734).
T1 construct: purchased KINOMEscan
T1 sequence (P46734 1-347): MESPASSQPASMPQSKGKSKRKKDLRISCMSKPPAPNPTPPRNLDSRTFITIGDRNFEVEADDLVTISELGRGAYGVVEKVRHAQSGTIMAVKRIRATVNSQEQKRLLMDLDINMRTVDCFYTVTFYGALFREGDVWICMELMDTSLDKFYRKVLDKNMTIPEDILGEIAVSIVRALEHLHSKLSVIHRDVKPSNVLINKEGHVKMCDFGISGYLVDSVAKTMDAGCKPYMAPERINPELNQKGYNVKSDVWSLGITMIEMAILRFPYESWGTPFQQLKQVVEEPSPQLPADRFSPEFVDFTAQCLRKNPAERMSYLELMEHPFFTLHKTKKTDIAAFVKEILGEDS
To be noted: Compound Concentration 10 µM. The text has this: (§1) We assessed the selectivity of members of this scaffold using the KINOMEscan methodology across a near comprehensive panel of 442 kinases [[18,27]].

Test [2] addresses T2, panel of 442 kinases (Homo sapiens, UniProt P78362).
T2 construct: purchased KINOMEscan
To be noted: kinase SRPK2; compound concentration 10 µM.
Description: as §1

Test [3] has as its target T3, panel of 442 kinases (Homo sapiens, UniProt Q9BYT3).
T3 construct: purchased KINOMEscan
To be noted: kinase STK33; compound concentration 10 µM.
Description: as §1

T2 sequence (P78362 whole entry): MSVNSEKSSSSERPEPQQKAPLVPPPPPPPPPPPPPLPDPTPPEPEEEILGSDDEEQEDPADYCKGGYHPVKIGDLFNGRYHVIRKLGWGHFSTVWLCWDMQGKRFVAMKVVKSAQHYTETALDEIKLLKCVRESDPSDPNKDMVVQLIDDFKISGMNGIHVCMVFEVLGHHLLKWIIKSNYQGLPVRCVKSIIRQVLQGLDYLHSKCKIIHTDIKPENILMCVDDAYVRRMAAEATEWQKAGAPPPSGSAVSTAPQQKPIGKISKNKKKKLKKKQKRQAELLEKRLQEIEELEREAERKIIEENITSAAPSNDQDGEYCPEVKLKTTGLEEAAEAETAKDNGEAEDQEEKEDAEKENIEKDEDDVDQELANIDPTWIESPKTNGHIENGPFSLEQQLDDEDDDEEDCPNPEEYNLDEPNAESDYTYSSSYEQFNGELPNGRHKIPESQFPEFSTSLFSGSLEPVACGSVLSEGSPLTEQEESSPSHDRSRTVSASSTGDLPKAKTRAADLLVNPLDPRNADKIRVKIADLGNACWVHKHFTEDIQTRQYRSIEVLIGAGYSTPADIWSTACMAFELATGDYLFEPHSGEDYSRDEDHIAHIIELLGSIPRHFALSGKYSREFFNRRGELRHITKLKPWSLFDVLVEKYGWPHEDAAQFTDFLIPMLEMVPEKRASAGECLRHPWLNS
T3 sequence (Q9BYT3 whole entry): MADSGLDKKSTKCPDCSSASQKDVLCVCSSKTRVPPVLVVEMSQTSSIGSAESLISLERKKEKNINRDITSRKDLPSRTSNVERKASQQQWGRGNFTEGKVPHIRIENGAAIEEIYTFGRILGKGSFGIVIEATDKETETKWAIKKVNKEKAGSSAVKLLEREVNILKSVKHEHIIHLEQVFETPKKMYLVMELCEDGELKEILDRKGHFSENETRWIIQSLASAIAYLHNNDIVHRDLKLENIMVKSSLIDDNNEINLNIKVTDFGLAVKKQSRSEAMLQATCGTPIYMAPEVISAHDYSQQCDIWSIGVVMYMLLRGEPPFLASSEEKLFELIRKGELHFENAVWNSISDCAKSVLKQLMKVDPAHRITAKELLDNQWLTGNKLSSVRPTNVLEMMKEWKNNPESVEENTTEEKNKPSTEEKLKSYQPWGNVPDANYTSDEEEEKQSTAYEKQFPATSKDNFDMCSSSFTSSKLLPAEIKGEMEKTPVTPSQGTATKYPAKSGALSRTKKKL

Consider `CCOc1cc(C(=O)N2CCC(N3CCN(C)CC3)CC2)ccc1Nc1ncc2c(n1)N(C1CCCC1)c1ccccc1C(=O)N2C` [Compound 26], for which the “KINOMEscan: MEK3” value in test [1] was 86. The “% Ctrl, SRPK2” value in test [2] was found to be 100 % Ctrl. Also, the “% Ctrl, STK33” value in test [3] came out at 100 % Ctrl.
As to `COc1cc(C(=O)N2CCC(N3CCN(C)CC3)CC2)ccc1Nc1ncc2c(n1)N1CCc3cccc(c31)C(=O)N2C` [Compound 24], the “KINOMEscan: MEK3” value in test [1] is 65. For the same compound, the “% Ctrl, SRPK2” value in test [2] came out at 98 % Ctrl.
Consider `COc1cc(C(=O)N2CCC(N3CCN(C)CC3)CC2)ccc1Nc1ncc2c(n1)N(C)c1ccccc1C(=O)N2C` [15 (LRRK2-IN-1)], for which the “KINOMEscan: MEK3” value in test [1] is 75. For the same compound, the “% Ctrl, SRPK2” value in test [2] was determined as 100 % Ctrl. Also, the “% Ctrl, STK33” value in test [3] is 10 % Ctrl.
In the case of `COc1cc(C(=O)N2CCC(N3CCN(C)CC3)CC2)ccc1Nc1ncc2c(n1)N(C1CCCC1)c1ccccc1C(=O)N2C` [Compound 25, 11-cyclopentyl-2-((2-methoxy-4-(4-(4-methylpiperazin-1-yl)piperidine-1-carbonyl)phenyl)amino)-5-methyl-5H-benzo[e]pyrimido[5,4-b][1,4]diazepin-6(11H)-one], the “KINOMEscan: MEK3” value in test [1] is listed as 73. Besides, in test [2], the “% Ctrl, SRPK2” value stood at 86 % Ctrl. Further, in test [3], the “% Ctrl, STK33” value is on record as 81 % Ctrl.
